# Experimental data taken from ChEMBL document CHEMBL1201862, “PubChem BioAssay data set” (2004).
# Calls of active or inactive are those of the source.
# Legend:
# Type in all cases: functional
# [1] = target: ALK tyrosine kinase receptor (Homo sapiens, UniProt Q9UM73);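 further: ALK tested as one member of a kinase panel screen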
# [2] = target: Tyrosine-protein kinase Fyn (Homo sapiens, UniProt P06241)
# [3] = target: Tyrosine-protein kinase JAK3 (Homo sapiens, UniProt P52333)
# [4] = target: Serine/threonine-protein kinase Nek2 (Homo sapiens, UniProt P51955)
# Sequence of Serine/threonine-protein kinase Nek2 (P51955 whole entry): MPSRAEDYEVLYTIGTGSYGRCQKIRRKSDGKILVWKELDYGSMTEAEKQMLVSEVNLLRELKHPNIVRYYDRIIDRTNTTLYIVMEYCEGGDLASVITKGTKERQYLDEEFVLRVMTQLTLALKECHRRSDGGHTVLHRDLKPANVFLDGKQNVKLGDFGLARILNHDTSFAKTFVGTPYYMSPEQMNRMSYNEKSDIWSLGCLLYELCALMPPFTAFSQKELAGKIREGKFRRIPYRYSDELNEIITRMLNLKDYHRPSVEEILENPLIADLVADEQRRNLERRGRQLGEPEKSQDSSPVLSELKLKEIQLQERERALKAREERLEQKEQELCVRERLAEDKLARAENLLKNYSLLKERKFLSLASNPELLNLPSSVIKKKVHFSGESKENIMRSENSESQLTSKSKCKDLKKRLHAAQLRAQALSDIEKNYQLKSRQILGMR
# [5] = target: Cyclin-dependent kinase 7 (Homo sapiens, UniProt P50613);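 further: value comes from a kinome-wide kinase profiling panel in which CDK7 is one member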
# [6] = target: Aurora kinase A (Homo sapiens, UniProt O14965);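 further: value from the Navigating the Kinome kinase panel profiling, panel entry STK6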
# [7] = target: Aurora kinase B (Homo sapiens, UniProt Q96GD4)
# [8] = target: Insulin-like growth factor 1 receptor (Homo sapiens, UniProt P08069); assay: Navigating the Kinome. Panel member name: IGF1R
# [9] = target: Tyrosine-protein kinase BTK (Homo sapiens, UniProt Q06187)
# Sequence of Tyrosine-protein kinase BTK (Q06187 whole entry): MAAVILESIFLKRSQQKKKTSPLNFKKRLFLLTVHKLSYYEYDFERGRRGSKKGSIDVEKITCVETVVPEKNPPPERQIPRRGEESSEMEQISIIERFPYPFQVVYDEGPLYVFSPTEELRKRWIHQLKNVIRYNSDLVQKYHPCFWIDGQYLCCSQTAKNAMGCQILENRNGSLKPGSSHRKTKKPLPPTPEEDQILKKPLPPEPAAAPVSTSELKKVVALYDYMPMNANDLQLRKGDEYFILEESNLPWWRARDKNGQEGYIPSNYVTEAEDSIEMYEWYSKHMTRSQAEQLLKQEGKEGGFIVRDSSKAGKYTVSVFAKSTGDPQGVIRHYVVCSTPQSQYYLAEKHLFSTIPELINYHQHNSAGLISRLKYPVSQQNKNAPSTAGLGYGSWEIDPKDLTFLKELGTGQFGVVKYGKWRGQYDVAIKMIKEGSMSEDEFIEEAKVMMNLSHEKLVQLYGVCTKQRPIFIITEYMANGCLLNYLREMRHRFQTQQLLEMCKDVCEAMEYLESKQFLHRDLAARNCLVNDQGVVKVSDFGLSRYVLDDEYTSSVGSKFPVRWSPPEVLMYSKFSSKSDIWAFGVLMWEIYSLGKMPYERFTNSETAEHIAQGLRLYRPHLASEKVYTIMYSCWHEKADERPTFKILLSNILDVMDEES
# [10] = target: Tyrosine-protein kinase Lck (Homo sapiens, UniProt P06239);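 further: lck was assayed as one member of a kinase panel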
# [11] = target: 5'-AMP-activated protein kinase catalytic subunit alpha-1 (Homo sapiens, UniProt Q13131)
# Sequence of 5'-AMP-activated protein kinase catalytic subunit alpha-1 (Q13131 whole entry): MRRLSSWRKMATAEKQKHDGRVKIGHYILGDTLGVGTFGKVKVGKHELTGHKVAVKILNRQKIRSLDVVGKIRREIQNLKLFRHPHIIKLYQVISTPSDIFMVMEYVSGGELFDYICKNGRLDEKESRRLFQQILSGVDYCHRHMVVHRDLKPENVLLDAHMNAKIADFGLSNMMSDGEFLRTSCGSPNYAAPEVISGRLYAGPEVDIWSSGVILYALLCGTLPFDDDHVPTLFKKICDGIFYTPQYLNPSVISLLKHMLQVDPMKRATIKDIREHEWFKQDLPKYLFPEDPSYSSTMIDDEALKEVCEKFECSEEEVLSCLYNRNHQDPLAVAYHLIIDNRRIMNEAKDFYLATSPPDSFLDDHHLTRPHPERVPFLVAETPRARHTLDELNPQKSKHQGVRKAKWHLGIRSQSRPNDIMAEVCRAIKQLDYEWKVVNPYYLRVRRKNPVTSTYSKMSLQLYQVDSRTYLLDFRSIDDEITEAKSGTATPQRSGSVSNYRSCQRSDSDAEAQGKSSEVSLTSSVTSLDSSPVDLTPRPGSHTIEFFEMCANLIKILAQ
# [12] = target: Serine/threonine-protein kinase pim-1 (Homo sapiens, UniProt P11309)
# Sequence of Serine/threonine-protein kinase pim-1 (P11309 whole entry): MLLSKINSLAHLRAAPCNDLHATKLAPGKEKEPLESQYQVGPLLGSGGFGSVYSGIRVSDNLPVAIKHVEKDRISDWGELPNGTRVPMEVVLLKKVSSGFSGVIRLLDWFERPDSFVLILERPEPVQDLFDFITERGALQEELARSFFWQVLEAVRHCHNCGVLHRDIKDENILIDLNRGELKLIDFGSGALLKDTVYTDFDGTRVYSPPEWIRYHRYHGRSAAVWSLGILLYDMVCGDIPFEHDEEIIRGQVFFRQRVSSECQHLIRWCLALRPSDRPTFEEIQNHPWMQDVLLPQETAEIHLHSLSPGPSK
# [13] = target: Receptor-type tyrosine-protein kinase FLT3 (Homo sapiens, UniProt P36888);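 further: FLT3 was tested as one member of a kinome-wide kinase panel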
# Sequence of Receptor-type tyrosine-protein kinase FLT3 (P36888 whole entry): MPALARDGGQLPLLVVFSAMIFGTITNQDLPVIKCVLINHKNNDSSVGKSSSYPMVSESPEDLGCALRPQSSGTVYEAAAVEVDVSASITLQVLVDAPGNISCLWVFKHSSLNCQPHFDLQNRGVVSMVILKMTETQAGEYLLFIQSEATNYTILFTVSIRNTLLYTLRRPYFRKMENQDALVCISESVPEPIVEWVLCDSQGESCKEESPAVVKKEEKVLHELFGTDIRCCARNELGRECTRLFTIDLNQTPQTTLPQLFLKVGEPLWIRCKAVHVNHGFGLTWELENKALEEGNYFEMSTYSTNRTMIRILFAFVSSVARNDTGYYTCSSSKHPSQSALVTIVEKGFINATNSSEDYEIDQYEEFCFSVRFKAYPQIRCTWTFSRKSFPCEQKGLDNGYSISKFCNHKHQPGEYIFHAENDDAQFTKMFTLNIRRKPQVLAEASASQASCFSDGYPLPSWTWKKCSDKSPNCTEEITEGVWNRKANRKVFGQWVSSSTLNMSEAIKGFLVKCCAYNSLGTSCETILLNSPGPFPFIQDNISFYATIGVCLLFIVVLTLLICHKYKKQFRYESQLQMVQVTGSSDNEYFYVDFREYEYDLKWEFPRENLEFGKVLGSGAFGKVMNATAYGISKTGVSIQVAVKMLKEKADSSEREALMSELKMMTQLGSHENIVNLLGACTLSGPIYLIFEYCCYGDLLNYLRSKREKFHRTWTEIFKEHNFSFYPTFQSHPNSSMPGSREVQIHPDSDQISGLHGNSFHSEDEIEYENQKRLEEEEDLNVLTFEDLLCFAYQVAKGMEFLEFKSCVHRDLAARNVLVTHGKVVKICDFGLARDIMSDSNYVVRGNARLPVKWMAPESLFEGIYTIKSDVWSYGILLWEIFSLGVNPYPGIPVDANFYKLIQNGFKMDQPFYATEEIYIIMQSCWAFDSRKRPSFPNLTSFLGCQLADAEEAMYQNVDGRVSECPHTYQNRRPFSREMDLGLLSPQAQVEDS
# [14] = target: Tyrosine-protein kinase ABL1 (Homo sapiens, UniProt P00519)
# Sequence of Tyrosine-protein kinase ABL1 (P00519 whole entry): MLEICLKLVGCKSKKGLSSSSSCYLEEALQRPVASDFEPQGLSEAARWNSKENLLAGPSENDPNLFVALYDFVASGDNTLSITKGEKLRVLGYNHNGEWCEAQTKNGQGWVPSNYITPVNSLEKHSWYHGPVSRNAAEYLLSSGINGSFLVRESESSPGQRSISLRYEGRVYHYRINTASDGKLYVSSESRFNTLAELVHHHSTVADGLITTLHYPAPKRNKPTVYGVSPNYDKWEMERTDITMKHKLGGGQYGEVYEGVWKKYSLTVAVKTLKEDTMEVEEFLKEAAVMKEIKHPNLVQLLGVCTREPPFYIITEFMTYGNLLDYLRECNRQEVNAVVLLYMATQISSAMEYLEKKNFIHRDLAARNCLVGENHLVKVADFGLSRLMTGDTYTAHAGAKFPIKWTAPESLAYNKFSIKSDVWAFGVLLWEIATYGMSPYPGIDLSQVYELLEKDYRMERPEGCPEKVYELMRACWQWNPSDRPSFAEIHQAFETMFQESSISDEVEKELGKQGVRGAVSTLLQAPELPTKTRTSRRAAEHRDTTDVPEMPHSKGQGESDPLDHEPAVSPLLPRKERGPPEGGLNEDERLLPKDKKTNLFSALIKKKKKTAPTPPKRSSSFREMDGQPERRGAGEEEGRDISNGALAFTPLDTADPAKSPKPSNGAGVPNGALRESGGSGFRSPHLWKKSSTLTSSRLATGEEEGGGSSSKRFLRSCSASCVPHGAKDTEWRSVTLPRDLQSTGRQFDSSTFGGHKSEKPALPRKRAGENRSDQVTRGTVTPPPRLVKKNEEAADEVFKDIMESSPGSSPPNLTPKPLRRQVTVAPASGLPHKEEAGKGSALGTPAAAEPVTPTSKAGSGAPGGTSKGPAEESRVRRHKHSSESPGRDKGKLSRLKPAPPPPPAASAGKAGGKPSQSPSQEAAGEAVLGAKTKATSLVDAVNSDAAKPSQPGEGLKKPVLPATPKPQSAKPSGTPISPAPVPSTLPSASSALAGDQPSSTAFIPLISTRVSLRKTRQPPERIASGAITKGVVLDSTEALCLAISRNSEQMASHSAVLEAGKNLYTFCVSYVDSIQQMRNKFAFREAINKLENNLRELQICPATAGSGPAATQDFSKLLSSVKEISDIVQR
# [15] = target: T1, Serine/threonine-protein kinase Chk1 (Homo sapiens, UniProt O14757);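 further: measured as one member of a kinome-wide kinase profiling panel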
# T1 sequence (O14757 whole entry): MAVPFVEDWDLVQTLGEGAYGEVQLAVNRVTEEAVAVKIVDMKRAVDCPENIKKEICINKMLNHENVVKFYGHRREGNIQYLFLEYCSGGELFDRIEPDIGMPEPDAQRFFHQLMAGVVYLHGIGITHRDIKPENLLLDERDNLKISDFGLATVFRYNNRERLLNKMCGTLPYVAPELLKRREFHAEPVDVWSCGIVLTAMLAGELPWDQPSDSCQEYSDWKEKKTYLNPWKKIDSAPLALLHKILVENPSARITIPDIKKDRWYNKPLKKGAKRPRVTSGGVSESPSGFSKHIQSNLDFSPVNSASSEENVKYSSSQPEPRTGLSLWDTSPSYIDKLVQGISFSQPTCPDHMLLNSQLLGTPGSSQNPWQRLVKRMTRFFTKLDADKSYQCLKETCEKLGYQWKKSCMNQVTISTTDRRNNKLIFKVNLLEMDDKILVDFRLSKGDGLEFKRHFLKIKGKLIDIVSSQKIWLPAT
# [16] = target: Cyclin-dependent kinase 5 (Homo sapiens, UniProt Q00535);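 further: CDK5 measured as one member of a kinase profiling panel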
# [17] = target: Mitogen-activated protein kinase kinase kinase kinase 2 (Homo sapiens, UniProt Q12851);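 further: measured as one member of a kinome-wide kinase panel, with MAP4K2 as the panel entry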
# [18] = target: Serine/threonine-protein kinase PAK 4 (Homo sapiens, UniProt O96013);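 further: value obtained within a kinome profiling panel in which PAK4 was one of the panel members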
# [19] = target: T2, Serine/threonine-protein kinase D3 (Homo sapiens, UniProt O94806);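 further: determined within a kinase panel screen, with PRKCN as the panel member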
# T2 sequence (O94806 whole entry): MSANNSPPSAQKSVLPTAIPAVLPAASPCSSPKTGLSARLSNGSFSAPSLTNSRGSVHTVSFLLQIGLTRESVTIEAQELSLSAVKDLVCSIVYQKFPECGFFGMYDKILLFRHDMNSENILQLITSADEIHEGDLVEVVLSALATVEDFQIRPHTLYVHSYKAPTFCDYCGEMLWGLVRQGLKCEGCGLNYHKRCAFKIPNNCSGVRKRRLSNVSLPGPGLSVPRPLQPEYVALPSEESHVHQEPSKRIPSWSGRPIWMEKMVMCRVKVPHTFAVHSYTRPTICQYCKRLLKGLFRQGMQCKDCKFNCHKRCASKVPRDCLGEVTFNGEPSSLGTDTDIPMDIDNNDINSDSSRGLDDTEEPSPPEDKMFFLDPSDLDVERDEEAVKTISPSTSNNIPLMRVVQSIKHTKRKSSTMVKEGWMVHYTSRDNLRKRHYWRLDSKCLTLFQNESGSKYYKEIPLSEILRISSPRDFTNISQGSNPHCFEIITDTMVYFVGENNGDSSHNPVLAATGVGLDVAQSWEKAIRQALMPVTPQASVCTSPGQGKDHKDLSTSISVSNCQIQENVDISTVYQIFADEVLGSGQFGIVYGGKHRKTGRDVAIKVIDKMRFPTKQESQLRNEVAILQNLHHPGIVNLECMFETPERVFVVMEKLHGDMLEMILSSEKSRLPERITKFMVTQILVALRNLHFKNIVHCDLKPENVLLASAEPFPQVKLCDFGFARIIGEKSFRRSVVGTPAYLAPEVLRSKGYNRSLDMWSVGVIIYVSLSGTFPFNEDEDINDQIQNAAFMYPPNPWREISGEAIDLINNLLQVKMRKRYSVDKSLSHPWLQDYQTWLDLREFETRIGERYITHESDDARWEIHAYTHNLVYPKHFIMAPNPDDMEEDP
# [20] = target: Glycogen synthase kinase-3 alpha (Homo sapiens, UniProt P49840);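 further: GSK3A result taken from a broad kinome-wide kinase panel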
# [21] = target: Glycogen synthase kinase-3 beta (Homo sapiens, UniProt P49841);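 further: value comes from a broad kinome profiling panel, with GSK3B as the panel member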
# [22] = target: Tyrosine-protein kinase JAK2 (Homo sapiens, UniProt O60674);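 further: JAK2 tested as one member of a kinase panel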
# [23] = target: Macrophage colony-stimulating factor 1 receptor (Homo sapiens, UniProt P07333);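 further: value comes from the Navigating the Kinome screening panel, CSF1R member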
# Sequence of Macrophage colony-stimulating factor 1 receptor (P07333 whole entry): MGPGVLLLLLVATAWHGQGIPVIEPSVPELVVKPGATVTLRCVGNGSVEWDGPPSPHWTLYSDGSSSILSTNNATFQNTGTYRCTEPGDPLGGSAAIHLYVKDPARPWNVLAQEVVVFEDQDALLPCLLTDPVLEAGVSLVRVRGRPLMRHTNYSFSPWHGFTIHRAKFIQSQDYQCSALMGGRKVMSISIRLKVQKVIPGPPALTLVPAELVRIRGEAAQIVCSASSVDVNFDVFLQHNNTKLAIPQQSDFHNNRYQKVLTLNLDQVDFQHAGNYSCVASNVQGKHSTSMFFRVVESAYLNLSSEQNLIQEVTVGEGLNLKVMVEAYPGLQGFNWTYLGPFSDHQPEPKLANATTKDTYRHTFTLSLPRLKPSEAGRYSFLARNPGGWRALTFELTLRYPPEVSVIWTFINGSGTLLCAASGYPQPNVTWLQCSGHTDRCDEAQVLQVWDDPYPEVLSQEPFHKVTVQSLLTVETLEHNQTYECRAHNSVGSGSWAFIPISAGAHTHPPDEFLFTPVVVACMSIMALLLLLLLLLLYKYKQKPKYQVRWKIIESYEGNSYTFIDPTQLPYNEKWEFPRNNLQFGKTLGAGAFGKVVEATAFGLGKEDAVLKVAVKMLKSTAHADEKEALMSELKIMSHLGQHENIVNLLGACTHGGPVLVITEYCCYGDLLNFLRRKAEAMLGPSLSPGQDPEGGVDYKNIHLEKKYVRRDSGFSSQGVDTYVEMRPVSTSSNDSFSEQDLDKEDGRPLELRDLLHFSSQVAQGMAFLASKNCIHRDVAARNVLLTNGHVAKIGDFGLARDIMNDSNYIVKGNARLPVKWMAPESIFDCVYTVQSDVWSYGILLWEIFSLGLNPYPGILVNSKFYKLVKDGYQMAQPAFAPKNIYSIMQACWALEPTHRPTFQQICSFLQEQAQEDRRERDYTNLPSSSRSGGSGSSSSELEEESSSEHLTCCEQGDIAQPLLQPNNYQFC
Ki [1],Ki [2],Ki [3],Ki [4],Ki [5],Ki [6],Ki [7],Ki [8],Ki [9],Ki [10],Ki [11],Ki [12],Ki [13],Ki [14],Ki [15],Ki [16],Ki [17],Ki [18],Ki [19],Ki [20],Compound,also measured
> 6.31 µM (inactive),> 6.31 µM (inactive),> 5.01 µM (inactive),> 3.16 µM (inactive),> 3.98 µM (inactive),> 1.58 µM (inactive),> 3.98 µM (inactive),> 2.51 µM (inactive),> 6.31 µM (inactive),> 6.31 µM (inactive),> 3.16 µM (inactive),> 6.31 µM (inactive),> 3.16 µM (inactive),> 2.51 µM (inactive),> 3.16 µM (inactive),> 3.16 µM (inactive),> 2.51 µM (inactive),> 5.01 µM (inactive),> 3.98 µM (inactive),3.16 µM (active),[2H]C([2H])([2H])Oc1cccc(C(C)NC(=O)c2sc(-c3ccncc3)nc2C)c1 (stereo unspecified),Ki [21]: 2 µM (active); Ki [22]: > 2.51 µM (inactive); Ki [23]: > 2.51 µM (inactive)
0.794 µM (active),> 0.794 µM (inactive),1.26 µM (active),> 10 µM (inactive),0.02 µM (active),1 µM (active),0.251 µM (active),> 2 µM (inactive),> 1.26 µM (inactive),> 2.51 µM (inactive),0.0316 µM (active),0.00631 µM (active),0.1 µM (active),> 0.631 µM (inactive),7.94 µM (active),0.0126 µM (active),0.0631 µM (active),0.0794 µM (active),0.00398 µM (active),0.1 µM (active),Cc1n[nH]c2ccc(-c3cncc(OCC(N)Cc4ccc(Cl)c(Cl)c4)c3)cc12 (stereo unspecified),Ki [21]: 0.0316 µM (active); Ki [22]: > 1.58 µM (inactive); Ki [23]: > 2.51 µM (inactive)
